Data from patent US10656162B2, “Use of glu-tubulin as a biomarker of drug response to furazanobenzimidazoles” (Basilea Pharmaceutica AG, priority 2011, dated 2020).

Tests used:
[1] = tested on: H460 BAL27862-resistant cell line variant; assay: Crystal Violet assay, BAL27862-resistant H460 versus parental line; assay type: cell-based, human; settings: for Resistance factors (ratio of IC50 BAL27862-resistant cell line variant and IC50 parental cell line): H460, 72 hours, Crystal Violet
From the text: (§1) BAL27862-resistant sublines of human non-small cell lung cancer (H460 ATCC reference HTB-177; A549 ATCC reference CCL-185), ovarian cancer (SKOV3 ATCC reference HTB-77) lines were generated by long-term selection in complete cell culture medium (RPMI-1640 containing 10% FCS; Sigma-Aldrich) by stepwise increasing concentrations of BAL27862. […] The resistant sublines were expanded at the highest tolerated BAL27862 concentration and subsequently frozen and stored in liquid nitrogen.
(§2) After medium was removed, cells were fixed and stained by adding 50 μl Crystal Violet Staining (0.2% Crystal Violet in 50% Methanol) per well. Plates were incubated for 1 hour at room temperature. Subsequently the stain was decanted and plates were washed 4 times with double-distilled water. Plates were air-dried for several hours. Stain was dissolved by adding 100 μl buffer (0.1 M Tris pH 7.5, 0.2% SDS, 20% Ethanol) per well and shaking the plates. Absorbance at 590 nm was measured using a SpectraMax M2e plate reader (Molecular Devices). Anti-proliferative IC50 values were calculated from concentration response curves using GraphPad Prism software. Resistance factors were calculated as a ratio of BAL27862 IC50 in the resistant line variant versus the IC50 in the parental line.

[2] = tested on: MEXF 276 patient-derived melanoma; assay: Colony outgrowth assay, MEXF 276; assay type: cell-based, human; settings: for Response to compound (BAL27862, paclitaxel, vinblastine): MEXF 276, melanoma, ex vivo colony outgrowth
Method: (§3) Single cell suspensions of patient-derived tumour xenografts (maintained in nude mice) were prepared. For colony outgrowth assays, cells were plated in soft agar in 24-well plates according to the assay introduced by Hamburger & Salmon (Primary bioassay of human tumour stem cells, Science, 1977.197:461-463). 2×10^4-6×10^4 cells in 0.2 mL medium containing 0.4% agar were plated out on a bottom layer of 0.75% agar. Test compounds were applied in 0.2 mL culture medium. Every 24-well plate contained untreated controls and samples in triplicates. Cultures were incubated at 37° C. and 7.5% CO2 for 5-28 days. 24 hours prior to analysis, vital colonies were stained with a solution of metabolisable tetrazolium salt (Alley M C et al, Life Sci. 1982, 31:3071-3078) and were counted with an automatic image analysis system (Omnicon 3600, Biosys GmbH).
(§4) Relative drug effects were expressed by the ratio of the mean number of colonies in the treated wells and the control wells. IC70-values were determined by plotting compound concentrations versus relative colony counts.

[3] = tested on: experimental, solid tumour xenograft models; assay: Solid tumour xenograft models; settings: in vivo
[4] = tested on: MEXF 1341 patient-derived melanoma; assay: Colony outgrowth assay, MEXF 1341; assay type: cell-based, human; parameters: key to Response to compound (BAL27862, paclitaxel, vinblastine): Sensitive: BAL27862-sensitive tumour cells have IC70 values in the low nanomolar range; Resistant: BAL27862-resistant tumour cells are defined by IC70 values >600 nanomolar; settings: for Response to compound (BAL27862, paclitaxel, vinblastine): MEXF 1341, melanoma, ex vivo colony outgrowth
Method: as §3, §4

[5] = tested on: CXF 243 patient-derived colorectal tumour; assay: Colony outgrowth assay, CXF 243; assay type: cell-based, human; parameters: key to Response to compound (BAL27862, paclitaxel, vinblastine): Sensitive: BAL27862-sensitive tumour cells have IC70 values in the low nanomolar range; Resistant: BAL27862-resistant tumour cells are defined by IC70 values >600 nanomolar; settings: for Response to compound (BAL27862, paclitaxel, vinblastine): CXF 243, colorectal cancer, ex vivo colony outgrowth
Method: as §3, §4

[6] = tested on: CXF 1103 patient-derived colorectal tumour; assay: Colony outgrowth assay, CXF 1103; assay type: cell-based, human; settings: for Response to compound (BAL27862, paclitaxel, vinblastine): CXF 1103, colorectal cancer, ex vivo colony outgrowth
Method: as §3, §4

[7] = tested on: A549 NSCLC cells; assay: Immunofluorescent staining of microtubules, A549; assay type: cell-based, human; settings: for Microtubule phenotype of mitotic or G2/M arrested cells: A549, 24 hours, 50 nM BAL27862, 80 nM Compound B, 20 nM Compound C, anti-alpha-tubulin staining
Method: (§5) A549 human non-small cell lung cancer (NSCLC, ATCC reference number CCL-185) cells, HeLa cervical cancer cells (ATCC reference number CCL-2) and SKBR3 breast carcinoma cells (ATCC reference number HTB-30) were seeded at densities of 50% on round microscope coverslips and cultured for 24 hours in RPMI-1640 containing 10% FCS (also referred to as FBS) at 37° C., 5% CO2. Compounds to be tested were dissolved in DMSO. The cell culture medium was replaced with medium containing the diluted compound(s) (paclitaxel, vinblastine, colchicine and nocodazole were purchased from Sigma-Aldrich) or vehicle. After treatment for the times indicated in the Brief Description of the Figures, coverslips were washed and cells were fixed in methanol/acetone (1:1) for 5 minutes at room temperature and subsequently incubated in blocking buffer (0.5% BSA and 0.1% TX-100 in PBS) for 30 minutes at room temperature. Specimens were then incubated with anti-alpha-tubulin (Sigma, 1:2000) for 1 hour at room temperature in blocking buffer. After several washing steps cells were incubated with AlexaFluor-488 goat-anti-mouse IgG (Molecular Probes, 1:3000) for 1 hour at room temperature followed by several washing steps with blocking buffer. Specimens were then mounted with ProLong Gold antifade (Molecular Probes, sealed with nail polish and examined with a Leica immunofluorescence microscope. Images were captured with a cooled CCD-camera and processed by ImageJ software.

[8] = tested on: HeLa cervical cancer cells; assay: Immunofluorescent staining of microtubules, HeLa; assay type: cell-based, human; settings: 24 hours, 50 nM BAL27862
Method: as §5, with “Specimens were then mounted with ProLong Gold antifade (Molecular Probes, sealed with nail polish and examined with a Leica immunofluorescence microscope. Images were captured with a cooled CCD-camera and processed by ImageJ software.” left out

[9] = tested on: P-gp pump over-expressing models; assay: Models over-expressing the P-gp pump; assay type: cell-based; settings: models tested in vitro; also human mammary tumour xenografts
[10] = tested on: LXFE 397 Patient-derived lung tumour; assay: Colony outgrowth assay, LXFE 397; assay type: cell-based, human
Method: as §3, §4

[11] = tested on: A549 BAL27862-resistant cell line variant; assay: Crystal Violet assay, BAL27862-resistant A549 versus parental line; assay type: cell-based, human; settings: for Resistance factors (ratio of IC50 BAL27862-resistant cell line variant and IC50 parental cell line): A549, 72 hours, Crystal Violet
From the text: as §1, §2

[12] = tested on: LXFE 211 Patient-derived lung tumour; assay: Colony outgrowth assay, LXFE 211; assay type: cell-based, human; parameters: key to Response to compound (BAL27862, paclitaxel, vinblastine): Sensitive: BAL27862-sensitive tumour cells have IC70 values in the low nanomolar range; Resistant: BAL27862-resistant tumour cells are defined by IC70 values >600 nanomolar; settings: for Response to compound (BAL27862, paclitaxel, vinblastine): LXFE 211, lung cancer, ex vivo colony outgrowth
Method: as §3, §4

[13] = tested on: SKOV3 resistant 2; assay: Crystal Violet assay, SKOV3 resistant 2 versus parental line; assay type: cell-based, human; settings: for Resistance factors (ratio of IC50 BAL27862-resistant cell line variant and IC50 parental cell line): SKOV3 resistant 2, 72 hours, Crystal Violet
From the text: as §1, §2

[14] = tested on: SKBR3 breast cancer cells; assay: Immunofluorescent staining of microtubules, SKBR3; assay type: cell-based, human; settings: SKBR3, 24 hours, 50 nM BAL27862
Method: as §5, with “Specimens were then mounted with ProLong Gold antifade (Molecular Probes, sealed with nail polish and examined with a Leica immunofluorescence microscope. Images were captured with a cooled CCD-camera and processed by ImageJ software.” left out

[15] = tested on: SKOV3 resistant 1; assay: Crystal Violet assay, SKOV3 resistant 1 versus parental line; assay type: cell-based, human; settings: for Resistance factors (ratio of IC50 BAL27862-resistant cell line variant and IC50 parental cell line): SKOV3 resistant 1, 72 hours, Crystal Violet
From the text: as §1, §2

| SMILES | Resistance factors (ratio of IC50 BAL27862-resistant cell line variant and IC50 parental cell line) [1] | Response to compound (BAL27862, paclitaxel, vinblastine) [6] | Microtubule phenotype of mitotic or G2/M arrested cells [7] | Resistance factors (ratio of IC50 BAL27862-resistant cell line variant and IC50 parental cell line) [11] | Response to compound (BAL27862, paclitaxel, vinblastine) [12] | Resistance factors (ratio of IC50 BAL27862-resistant cell line variant and IC50 parental cell line) [13] | Resistance factors (ratio of IC50 BAL27862-resistant cell line variant and IC50 parental cell line) [15] | other results |
| --- | --- | --- | --- | --- | --- | --- | --- | --- |
| N#CCCNc1nonc1-c1nc2ccccc2n1CC(=O)c1ccc(N)cc1 [BAL27862, 3-(4-{1-[2-(4-Amino-phenyl)-2-oxo-ethyl]-1H-benzoimidazol-2-yl}-furazan-3-ylamino)-propionitrile] | 5.3 | Sensitive | multiple dot-like structures are visible | 3.0 | Sensitive | 11.6 | 7.6 | BAL27862 resistance factors versus parental lines ([1]; H460, based on IC50 determinations): 5.3 fold; IC70 BAL27862 ([2]; MEXF 276, 70% growth inhibition versus controls): >3500 nM; Response to compound (BAL27862, paclitaxel, vinblastine) [2]: Resistant (BAL27862-resistant tumour cells are defined by IC70 values >600 nanomolar); Activity in tumour xenograft models [3]: activity across a broad panel of experimental, solid tumour xenograft models; IC70 BAL27862 ([4]; MEXF 1341, 70% growth inhibition versus controls): 25 nM; Response to compound (BAL27862, paclitaxel, vinblastine) [4]: Sensitive; IC70 BAL27862 ([5]; CXF 243, 70% growth inhibition versus controls): 696 nM; IC70 BAL27862 ([6]; CXF 1103, 70% growth inhibition versus controls): 22 nM; Microtubule phenotype on combination treatment ([7]; A549, 24 hours vinblastine, colchicine, paclitaxel or nocodazole with the final 4 hours including BAL27862): disruption of the microtubule structures; Microtubule phenotype of mitotic or G2/M arrested cells ([7]; listed as compound A): highly reproducible and distinct microtubule phenotype; Microtubule phenotype of mitotic or G2/M arrested cells [8]: highly reproducible and distinct microtubule phenotype; Activity with over-expression of the P-gp pump [9]: not affected; IC70 BAL27862 ([10]; LXFE 397, 70% growth inhibition versus controls): >3500 nM; Response to compound (BAL27862, paclitaxel, vinblastine) ([10]; LXFE 397, lung cancer, ex vivo colony outgrowth): Resistant (BAL27862-resistant tumour cells are defined by IC70 values >600 nanomolar); BAL27862 resistance factors versus parental lines ([11]; A549, based on IC50 determinations): 3.0 fold; IC70 BAL27862 ([12]; LXFE 211, 70% growth inhibition versus controls): 21 nM; BAL27862 resistance factors versus parental lines ([13]; SKOV3 resistant 2, based on IC50 determinations): 11.6 fold; Microtubule phenotype of mitotic or G2/M arrested cells [14]: highly reproducible and distinct microtubule phenotype; BAL27862 resistance factors versus parental lines ([15]; SKOV3 resistant 1, based on IC50 determinations): 7.6 fold |
| COc1cc2c(c(OC)c1OC)-c1ccc(OC)c(=O)cc1[C@@H](NC(C)=O)CC2 [Colchicine, colchicine] | 1.6 |  |  | 0.9 |  | 2.8 | 2.0 |  |
| Nc1ccc(C(=O)Cn2c(-c3nonc3N)nc3ccccc32)cc1 [Compound B, 2-[2-(4-Amino-furazan-3-yl)-benzoimidazol-1-yl]-1-(4-amino-phenyl)-ethanone] |  |  | highly reproducible and distinct microtubule phenotype |  |  |  |  |  |
| N#CCCNc1nonc1-c1nc2ccccc2n1CC(=O)c1ccc(N)nc1 [Compound C, 3-(4-{1-[2-(6-Amino-pyridin-3-yl)-2-oxo-ethyl]-1H-benzoimidazol-2-yl}-furazan-3-ylamino)-propionitrile] |  |  | highly reproducible and distinct microtubule phenotype |  |  |  |  |  |
| COC(=O)Nc1nc2ccc(C(=O)c3cccs3)cc2[nH]1 [Nocodazole, nocodazole] | 1.3 |  |  | 1.6 |  | 3.9 | 3.6 |  |
| CC(=O)O[C@H]1C(=O)[C@@]2(C)[C@H]([C@H](OC(=O)c3ccccc3)[C@]3(O)C[C@H](OC(=O)[C@H](O)[C@@H](NC(=O)c4ccccc4)c4ccccc4)C(C)=C1C3(C)C)[C@]1(OC(C)=O)CO[C@@H]1C[C@@H]2O [Paclitaxel, paclitaxel] | 0.3 | Resistant (BAL27862-resistant tumour cells are defined by IC70 values >600 nanomolar) |  | 0.06 | Resistant (BAL27862-resistant tumour cells are defined by IC70 values >600 nanomolar) | 0.5 | 0.4 | Response to compound (BAL27862, paclitaxel, vinblastine) [5]: Resistant (BAL27862-resistant tumour cells are defined by IC70 values >600 nanomolar) |
| CC[C@]1(O)C[C@@H]2CN(CCc3c([nH]c4ccccc34)[C@@](C(=O)OC)(c3cc4c(cc3OC)N(C)[C@H]3[C@@](O)(C(=O)OC)[C@H](OC(C)=O)[C@]5(CC)C=CCN6CC[C@]43[C@@H]65)C2)C1 [Vinblastine, vinblastine, reference compound] | 4.6 | Resistant (BAL27862-resistant tumour cells are defined by IC70 values >600 nanomolar) |  | 2.3 | Sensitive |  | 15.7 | Response to compound (BAL27862, paclitaxel, vinblastine) [2]: Sensitive; Response to compound (BAL27862, paclitaxel, vinblastine) [4]: Sensitive; Response to compound (BAL27862, paclitaxel, vinblastine) [5]: Sensitive |
